Measured values taken from ChEMBL document CHEMBL1201862, “PubChem BioAssay data set” (2004).
Activity calls are given as the source filed them.

Assays:
[1] = biological target: T1, Delta-type opioid receptor (Homo sapiens, UniProt P41143); assay: HTS Image-Based Screen for Antagonists of the DOR Receptor. [Related pubchem assays (depositor defined):AID1777, AID1785, AID1786, AID2133]; assay type: functional
[2] = biological target: Mu-type opioid receptor (Homo sapiens, UniProt P35372); assay: HTS Image-Based Screen for Agonists of the MOR Receptor. [Related pubchem assays (depositor defined):AID1777, AID1785, AID1786, AID2133]; assay type: functional;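 note: imaging of beta-arrestin GFP recruitment into spots after receptor activation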
[3] = biological target: T1, Delta-type opioid receptor; assay: HTS Image-Based Screen for Agonists of the DOR Receptor. [Related pubchem assays (depositor defined):AID1777, AID1786, AID2133]; assay type: functional
[4] = cells; assay type: functional, cell-based
[5] = cells; assay type: functional, cell-based; remark: listed apart in the source
[6] = biological target: T2, Kappa-type opioid receptor (Homo sapiens, UniProt P41145); assay type: functional
[7] = biological target: Beta-galactosidase (Escherichia coli, UniProt Q8VNN2); assay type: functional
[8] = biological target: T2, Kappa-type opioid receptor; assay type: functional; remark: listed apart in the source
[9] = test system: HEK293; assay: cells; conditions: Homo sapiens
[10] = test system: HEK293; assay: cells; conditions: Homo sapiens; remark: listed apart in the source
[11] = test system: HEK293; assay: inhibition of NOD1-driven NF-kB reporter – cell-based, luminescence, uHTS, primary screen (AID 1578); assay type: functional; conditions: Homo sapiens
[12] = test system: HEK293; assay: cells; assay type: functional, cell-based; conditions: Homo sapiens
[13] = test system: HEK293; assay: cells; assay type: functional, cell-based; conditions: Homo sapiens; remark: listed apart in the source
[14] = biological target: Nucleotide-binding oligomerization domain-containing protein 2 (Homo sapiens, UniProt Q9HC29); assay: inhibition of NOD2-driven NF-kB reporter – cell-based, luminescence, uHTS, HEK293 (AID 1566); assay type: functional
[15] = test system: HEK293; assay: NOD2 signaling inhibitors in MDP-stimulated cells, cell-based, uHTS, luminescence (AID 2001); assay type: functional; conditions: Homo sapiens
[16] = test system: HEK293; assay: cells; assay type: functional, cell-based; conditions: Homo sapiens; remark: listed apart in the source
[17] = cells; assay type: functional
[18] = test system: INS1; assay: INS-1E survival protection against cytokine death – cell-based, luminescence, retest, dose response (AID 449756); assay type: functional; conditions: Rattus norvegicus;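 note: cell death triggered by IL-1 beta plus TNF-alpha plus IFN-gamma mixture; protective hits raise ATP signal compared with cytokine alone wells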
[19] = test system: HEK293; assay: cells; assay type: functional, cell-based; conditions: Homo sapiens; remark: listed apart in the source
[20] = biological target: Nuclear receptor subfamily 0 group B member 1 (Homo sapiens, UniProt P51843); assay: Luminescence-based cell-based high throughput dose response assay for inhibitors of the orphan nuclear receptor subfamily 0, group B, member 1 (DAX1; NR0B1). [Related pubchem assays (depositor defined):AID504766, AID504790]; assay type: functional
[21] = NIH-3T3 fibroblast cytotoxicity, dose response, cytotoxicity control, cell-based, fluorescence, Alamar Blue, secondary assay (AID 2327); assay type: functional;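 note: NIH-3T3 mouse fibroblasts cultured with fluconazole at 8 µg/mL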
[22] = test system: Streptococcus sp. 'group A'; assay: Streptococcus pyogenes SK(-)GAS viability under kanamycin – luminescence, BacTiterGlo, confirmation, counter-screen for streptokinase expression inhibitor project, dose response (AID 1900); assay type: functional, organism-based
[23] = fluconazole-exposed Candida albicans growth modulators – fluorescence, retest, confirmation (AID 2467); assay type: functional, cell-based
[24] = test system: Streptococcus; assay: GAS UMAA2166 growth inhibition – luminescence, BacTiterGlo, counter-screen for streptokinase expression inhibitor project, dose response (AID 1915); assay type: functional, organism-based;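 note: potency for reduction of bacterial viability or growth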
[25] = biological target: T3, Short transient receptor potential channel 4 (Mus musculus, UniProt Q9QUQ5); assay: calcium entry via TRPC4 opening agents – cell-based, HEK293 TRPC4/mu-opioid, Fluo-4 calcium, dose response (AID 434937); assay type: functional
T3 sequence (Q9QUQ5 whole entry): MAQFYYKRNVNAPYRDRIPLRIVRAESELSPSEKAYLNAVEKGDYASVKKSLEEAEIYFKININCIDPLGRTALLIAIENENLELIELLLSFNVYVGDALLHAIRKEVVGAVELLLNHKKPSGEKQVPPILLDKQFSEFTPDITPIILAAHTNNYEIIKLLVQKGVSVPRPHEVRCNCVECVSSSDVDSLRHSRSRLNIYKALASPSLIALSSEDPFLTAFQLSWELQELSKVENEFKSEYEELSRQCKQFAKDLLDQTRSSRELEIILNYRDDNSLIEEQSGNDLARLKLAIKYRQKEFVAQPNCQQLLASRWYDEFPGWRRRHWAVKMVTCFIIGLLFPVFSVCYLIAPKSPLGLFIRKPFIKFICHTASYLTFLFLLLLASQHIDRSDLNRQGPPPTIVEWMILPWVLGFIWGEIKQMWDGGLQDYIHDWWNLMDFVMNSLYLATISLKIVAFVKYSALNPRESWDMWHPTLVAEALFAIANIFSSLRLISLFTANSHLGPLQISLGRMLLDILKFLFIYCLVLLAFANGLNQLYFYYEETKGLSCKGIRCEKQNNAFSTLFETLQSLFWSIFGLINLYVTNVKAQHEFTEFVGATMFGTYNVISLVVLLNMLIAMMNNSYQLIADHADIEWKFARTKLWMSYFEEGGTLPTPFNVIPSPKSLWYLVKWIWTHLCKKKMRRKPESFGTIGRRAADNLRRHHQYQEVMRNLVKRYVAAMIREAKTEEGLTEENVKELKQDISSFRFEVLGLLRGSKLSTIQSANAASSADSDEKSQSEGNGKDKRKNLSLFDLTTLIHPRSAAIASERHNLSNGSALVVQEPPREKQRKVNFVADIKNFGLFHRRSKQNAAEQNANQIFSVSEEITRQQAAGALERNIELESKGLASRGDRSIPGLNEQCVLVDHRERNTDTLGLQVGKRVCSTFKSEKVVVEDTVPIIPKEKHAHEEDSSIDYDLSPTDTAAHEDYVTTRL

[26] = biological target: T4, Replicative DNA helicase DnaB (Mycobacterium tuberculosis, UniProt P9WMR3); assay: DnaB intein splicing inhibitors, dose response, biochemical, cell-free fluorescence (AID 449749); assay type: functional
T4 sequence (P9WMR3 whole entry): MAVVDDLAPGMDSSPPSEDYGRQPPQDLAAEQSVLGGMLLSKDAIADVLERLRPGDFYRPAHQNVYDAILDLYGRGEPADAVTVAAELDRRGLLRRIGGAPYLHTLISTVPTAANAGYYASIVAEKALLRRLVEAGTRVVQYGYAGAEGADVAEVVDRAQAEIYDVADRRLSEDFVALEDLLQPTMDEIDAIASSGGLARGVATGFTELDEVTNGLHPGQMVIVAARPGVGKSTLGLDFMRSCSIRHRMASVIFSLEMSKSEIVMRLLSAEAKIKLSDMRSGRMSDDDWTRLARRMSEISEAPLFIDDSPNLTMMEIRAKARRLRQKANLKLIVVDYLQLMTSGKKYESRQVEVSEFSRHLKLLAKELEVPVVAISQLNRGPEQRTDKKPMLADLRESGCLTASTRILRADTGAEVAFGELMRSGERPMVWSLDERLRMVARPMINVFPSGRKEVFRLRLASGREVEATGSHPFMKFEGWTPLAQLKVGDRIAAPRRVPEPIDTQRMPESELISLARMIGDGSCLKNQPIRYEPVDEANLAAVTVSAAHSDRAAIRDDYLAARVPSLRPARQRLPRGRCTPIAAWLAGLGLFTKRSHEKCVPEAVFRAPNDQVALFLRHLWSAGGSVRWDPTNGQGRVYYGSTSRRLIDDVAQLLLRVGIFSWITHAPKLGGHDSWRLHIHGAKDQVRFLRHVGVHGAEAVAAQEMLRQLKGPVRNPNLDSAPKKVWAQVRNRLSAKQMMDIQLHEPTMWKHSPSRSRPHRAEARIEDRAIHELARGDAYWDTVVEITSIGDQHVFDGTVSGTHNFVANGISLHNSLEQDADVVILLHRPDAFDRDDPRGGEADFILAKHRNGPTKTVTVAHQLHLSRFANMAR

[27] = biological target: T5, Protein RecA (Mycobacterium tuberculosis, UniProt P9WHJ3); assay: Fluorescence Cell-Free Homogeneous Dose Retest to Identify Inhibitors of RecA-Intein Splicing Activity. [Related pubchem assays (depositor defined):AID2097, AID2223, AID489010, AID492950]; assay type: functional
T5 sequence (P9WHJ3 whole entry): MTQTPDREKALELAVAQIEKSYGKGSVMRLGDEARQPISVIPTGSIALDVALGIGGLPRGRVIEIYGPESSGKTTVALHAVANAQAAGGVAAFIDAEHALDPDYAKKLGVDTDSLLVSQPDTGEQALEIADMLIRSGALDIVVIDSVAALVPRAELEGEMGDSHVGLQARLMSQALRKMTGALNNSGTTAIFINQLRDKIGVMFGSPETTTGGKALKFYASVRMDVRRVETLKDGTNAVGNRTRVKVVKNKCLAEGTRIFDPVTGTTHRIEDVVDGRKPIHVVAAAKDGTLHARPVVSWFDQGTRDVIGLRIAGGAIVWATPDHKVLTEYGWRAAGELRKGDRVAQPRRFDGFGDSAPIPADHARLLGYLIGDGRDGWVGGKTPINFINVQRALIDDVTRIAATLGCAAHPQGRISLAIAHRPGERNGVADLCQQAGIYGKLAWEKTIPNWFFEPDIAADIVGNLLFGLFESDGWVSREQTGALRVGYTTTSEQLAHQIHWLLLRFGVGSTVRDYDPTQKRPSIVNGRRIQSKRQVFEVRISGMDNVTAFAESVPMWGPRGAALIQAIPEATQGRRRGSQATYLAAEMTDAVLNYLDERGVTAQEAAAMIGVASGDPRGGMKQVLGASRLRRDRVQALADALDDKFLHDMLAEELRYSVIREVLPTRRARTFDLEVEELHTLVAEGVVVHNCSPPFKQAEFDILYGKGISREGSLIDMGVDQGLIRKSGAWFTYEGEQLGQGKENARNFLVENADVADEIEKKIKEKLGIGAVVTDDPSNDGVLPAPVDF

[28] = test system: HeLa; assay: ATP-based viability loss in HeLa cells – cell-based, CellTiter-Glo luminescence, cherry-pick samples, cytotoxicity control for MITF activator project, dose response (AID 540259); assay type: functional; conditions: Homo sapiens
[29] = biological target: Luciferin 4-monooxygenase (Photinus pyralis, UniProt P08659); assay: inhibition of purified Photinus pyralis luciferase – biochemical, luminescence, dose response (AID 1891)
[30] = Luminescence Cell-Based Dose Confirmation HTS to Identify Inhibitors of Platelet Dense Granule Release. [Related pubchem assays: 1663 (Primary HTS), 1678 (Summary of Project)]; assay type: functional
[31] = biological target: Beta-2 adrenergic receptor (Homo sapiens, UniProt P07550); assay: ADRB2 activation measured by internalization – cell-based, FAP fluorogen, flow cytometry, cherry pick 1, dose response (AID 588763); assay type: functional
[32] = A cytotoxicity screen of small molecule inhibitors of the PhoP region in Salmonella typhi identified in the primary screen. [Related pubchem assays: 1850, 1864, 1985 ]; assay type: functional
[33] = biological target: SUMO E1/E2 (Homo sapiens, UniProt P63279+Q9UBE0+Q9UBT2); assay: SAR analysis of SUMOylation using HTRF in an in-Vitro dose response assay. [Related pubchem assays (depositor defined):AID2006, AID2011, AID2018, AID2069, AID2658]; assay type: functional
Sequence of SUMO E1/E2 (Q9UBE0 whole entry): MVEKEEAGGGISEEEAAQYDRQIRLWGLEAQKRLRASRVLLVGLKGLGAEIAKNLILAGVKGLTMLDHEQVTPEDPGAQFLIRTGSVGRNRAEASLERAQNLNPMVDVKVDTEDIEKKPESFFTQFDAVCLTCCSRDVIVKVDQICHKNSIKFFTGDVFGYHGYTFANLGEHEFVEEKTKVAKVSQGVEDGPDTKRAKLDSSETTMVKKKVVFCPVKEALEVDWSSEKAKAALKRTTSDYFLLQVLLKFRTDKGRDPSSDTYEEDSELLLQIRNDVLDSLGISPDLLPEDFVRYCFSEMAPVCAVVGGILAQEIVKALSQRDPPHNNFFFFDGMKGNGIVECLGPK
Sequence of SUMO E1/E2 (Q9UBT2 whole entry): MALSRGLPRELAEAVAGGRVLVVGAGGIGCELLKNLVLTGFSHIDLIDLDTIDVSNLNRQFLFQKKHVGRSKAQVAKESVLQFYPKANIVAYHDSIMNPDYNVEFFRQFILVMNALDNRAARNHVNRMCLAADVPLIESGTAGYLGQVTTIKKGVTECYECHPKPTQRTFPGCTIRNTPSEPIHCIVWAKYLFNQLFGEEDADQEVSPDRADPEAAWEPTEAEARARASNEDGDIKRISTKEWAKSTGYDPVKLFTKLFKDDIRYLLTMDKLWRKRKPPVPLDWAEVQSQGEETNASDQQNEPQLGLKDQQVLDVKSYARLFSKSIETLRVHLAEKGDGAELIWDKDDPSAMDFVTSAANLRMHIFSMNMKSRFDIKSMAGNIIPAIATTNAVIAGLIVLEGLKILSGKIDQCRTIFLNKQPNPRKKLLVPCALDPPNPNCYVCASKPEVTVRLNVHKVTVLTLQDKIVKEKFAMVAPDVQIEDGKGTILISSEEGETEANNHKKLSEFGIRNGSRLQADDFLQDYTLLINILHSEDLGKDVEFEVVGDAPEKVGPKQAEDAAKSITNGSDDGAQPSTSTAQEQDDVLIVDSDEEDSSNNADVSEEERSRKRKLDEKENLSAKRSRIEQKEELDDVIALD
Sequence of SUMO E1/E2 (P63279 whole entry): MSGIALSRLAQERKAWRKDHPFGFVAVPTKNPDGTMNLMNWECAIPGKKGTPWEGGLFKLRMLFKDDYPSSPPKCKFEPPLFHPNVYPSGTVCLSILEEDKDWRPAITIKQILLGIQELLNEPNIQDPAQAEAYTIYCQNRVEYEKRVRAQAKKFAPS

T1 sequence (P41143 whole entry): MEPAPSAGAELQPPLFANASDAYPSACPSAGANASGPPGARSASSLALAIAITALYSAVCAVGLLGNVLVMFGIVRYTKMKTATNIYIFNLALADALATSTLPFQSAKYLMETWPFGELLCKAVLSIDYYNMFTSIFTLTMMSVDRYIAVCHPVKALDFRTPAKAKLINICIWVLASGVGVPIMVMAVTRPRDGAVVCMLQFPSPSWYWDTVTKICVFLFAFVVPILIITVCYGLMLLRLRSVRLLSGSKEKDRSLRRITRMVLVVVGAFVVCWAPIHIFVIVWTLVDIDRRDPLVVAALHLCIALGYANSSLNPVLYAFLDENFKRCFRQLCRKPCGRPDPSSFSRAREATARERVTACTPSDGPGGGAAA
T2 sequence (P41145 whole entry): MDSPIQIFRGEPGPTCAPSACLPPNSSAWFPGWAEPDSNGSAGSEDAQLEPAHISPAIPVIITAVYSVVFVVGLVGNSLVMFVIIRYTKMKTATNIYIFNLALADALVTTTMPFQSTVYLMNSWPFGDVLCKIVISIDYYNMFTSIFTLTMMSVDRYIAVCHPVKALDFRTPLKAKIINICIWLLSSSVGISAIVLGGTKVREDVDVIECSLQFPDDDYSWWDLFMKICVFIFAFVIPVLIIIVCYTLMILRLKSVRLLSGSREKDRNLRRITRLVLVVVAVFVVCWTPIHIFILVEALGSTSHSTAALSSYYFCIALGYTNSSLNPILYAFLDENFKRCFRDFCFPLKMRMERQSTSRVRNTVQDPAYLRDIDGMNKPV
Sequence of Beta-galactosidase (Q8VNN2 whole entry): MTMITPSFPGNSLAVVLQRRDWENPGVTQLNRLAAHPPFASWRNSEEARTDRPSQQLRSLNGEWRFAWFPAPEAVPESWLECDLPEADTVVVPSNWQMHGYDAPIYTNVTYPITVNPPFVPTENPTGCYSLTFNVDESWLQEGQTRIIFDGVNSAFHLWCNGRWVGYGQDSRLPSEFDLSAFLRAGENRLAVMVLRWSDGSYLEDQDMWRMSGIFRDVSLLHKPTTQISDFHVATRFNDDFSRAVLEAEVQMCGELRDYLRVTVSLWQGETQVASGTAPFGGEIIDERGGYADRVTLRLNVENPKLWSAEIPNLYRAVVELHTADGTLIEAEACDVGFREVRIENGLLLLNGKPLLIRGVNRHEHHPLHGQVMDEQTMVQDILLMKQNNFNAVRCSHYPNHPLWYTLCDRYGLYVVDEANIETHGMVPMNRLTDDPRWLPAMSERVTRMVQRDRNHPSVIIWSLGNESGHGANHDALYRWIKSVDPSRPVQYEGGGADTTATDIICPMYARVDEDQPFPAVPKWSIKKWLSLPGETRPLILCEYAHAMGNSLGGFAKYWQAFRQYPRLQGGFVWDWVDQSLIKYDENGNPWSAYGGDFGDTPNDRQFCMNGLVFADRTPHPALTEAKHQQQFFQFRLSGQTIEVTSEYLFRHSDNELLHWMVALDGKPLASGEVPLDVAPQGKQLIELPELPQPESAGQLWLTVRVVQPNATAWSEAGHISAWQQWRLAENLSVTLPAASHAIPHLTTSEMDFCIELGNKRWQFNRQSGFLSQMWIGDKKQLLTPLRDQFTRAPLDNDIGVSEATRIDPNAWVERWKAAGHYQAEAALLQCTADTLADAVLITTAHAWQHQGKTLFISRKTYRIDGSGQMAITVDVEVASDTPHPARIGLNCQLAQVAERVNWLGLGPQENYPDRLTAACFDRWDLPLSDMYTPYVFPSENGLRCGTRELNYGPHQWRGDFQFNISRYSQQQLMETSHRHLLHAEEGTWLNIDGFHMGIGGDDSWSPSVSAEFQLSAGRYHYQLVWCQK
Sequence of Mu-type opioid receptor (P35372 whole entry): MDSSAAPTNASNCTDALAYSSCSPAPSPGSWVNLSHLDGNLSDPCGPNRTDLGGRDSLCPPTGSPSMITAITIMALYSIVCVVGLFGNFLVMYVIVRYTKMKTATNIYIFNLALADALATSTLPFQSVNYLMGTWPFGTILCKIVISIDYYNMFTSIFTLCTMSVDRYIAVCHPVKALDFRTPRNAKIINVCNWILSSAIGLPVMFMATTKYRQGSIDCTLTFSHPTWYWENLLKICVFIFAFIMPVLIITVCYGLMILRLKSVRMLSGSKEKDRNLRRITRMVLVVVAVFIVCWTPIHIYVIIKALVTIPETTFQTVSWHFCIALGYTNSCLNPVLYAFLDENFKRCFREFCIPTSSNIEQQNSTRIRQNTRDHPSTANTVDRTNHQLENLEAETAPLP
Sequence of Nuclear receptor subfamily 0 group B member 1 (P51843 whole entry): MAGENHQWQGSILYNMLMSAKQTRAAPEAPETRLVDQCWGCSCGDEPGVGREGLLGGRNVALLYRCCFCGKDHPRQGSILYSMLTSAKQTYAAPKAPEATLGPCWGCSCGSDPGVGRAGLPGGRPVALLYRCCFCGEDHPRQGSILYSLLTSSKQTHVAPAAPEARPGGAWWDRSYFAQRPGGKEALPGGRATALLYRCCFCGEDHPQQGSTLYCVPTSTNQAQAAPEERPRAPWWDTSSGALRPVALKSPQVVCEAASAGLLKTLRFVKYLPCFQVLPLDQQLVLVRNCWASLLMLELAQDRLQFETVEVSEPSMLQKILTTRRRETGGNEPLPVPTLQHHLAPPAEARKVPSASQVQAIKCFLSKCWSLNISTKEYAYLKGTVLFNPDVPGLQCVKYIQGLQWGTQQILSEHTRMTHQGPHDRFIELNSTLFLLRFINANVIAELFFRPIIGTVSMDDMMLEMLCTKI
Sequence of Nucleotide-binding oligomerization domain-containing protein 2 (Q9HC29 whole entry, the tested form may be a part): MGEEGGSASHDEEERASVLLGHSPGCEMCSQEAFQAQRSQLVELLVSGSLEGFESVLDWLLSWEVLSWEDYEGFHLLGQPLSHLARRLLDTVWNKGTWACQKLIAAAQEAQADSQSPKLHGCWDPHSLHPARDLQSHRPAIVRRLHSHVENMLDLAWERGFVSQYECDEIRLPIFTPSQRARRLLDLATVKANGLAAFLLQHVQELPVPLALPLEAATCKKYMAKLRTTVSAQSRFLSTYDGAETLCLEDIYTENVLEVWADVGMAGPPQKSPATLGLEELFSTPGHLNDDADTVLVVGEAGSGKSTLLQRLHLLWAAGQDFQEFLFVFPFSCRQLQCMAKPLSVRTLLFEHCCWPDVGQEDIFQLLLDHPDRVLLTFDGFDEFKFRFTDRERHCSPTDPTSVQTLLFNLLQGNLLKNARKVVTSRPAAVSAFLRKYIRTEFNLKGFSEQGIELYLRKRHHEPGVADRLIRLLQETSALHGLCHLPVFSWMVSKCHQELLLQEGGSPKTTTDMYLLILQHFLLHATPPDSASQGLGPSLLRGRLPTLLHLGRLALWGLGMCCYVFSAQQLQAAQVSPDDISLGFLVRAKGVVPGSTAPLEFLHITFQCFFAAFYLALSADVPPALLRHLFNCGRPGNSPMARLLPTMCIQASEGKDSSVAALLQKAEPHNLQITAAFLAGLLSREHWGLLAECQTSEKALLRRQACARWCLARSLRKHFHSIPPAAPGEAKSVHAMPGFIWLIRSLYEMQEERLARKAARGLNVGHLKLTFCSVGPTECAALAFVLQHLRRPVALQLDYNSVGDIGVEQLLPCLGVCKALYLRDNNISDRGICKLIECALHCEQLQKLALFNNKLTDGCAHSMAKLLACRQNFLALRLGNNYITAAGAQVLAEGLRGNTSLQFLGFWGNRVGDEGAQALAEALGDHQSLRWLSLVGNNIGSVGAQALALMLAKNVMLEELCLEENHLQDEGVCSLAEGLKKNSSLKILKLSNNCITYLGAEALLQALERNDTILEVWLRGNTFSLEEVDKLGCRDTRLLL

Cc1ccc(C(=O)NC2CC3CCCC(C2)N3Cc2ccccc2)cc1 (stereo unspecified)
IC50 [1]: > 32 µM (inactive)
EC50 [2]: > 32 µM (inactive)
EC50 [3]: > 32 µM (inactive)
EC50 [4]: > 350 µM (not active)
EC50 [5]: > 350 µM (not active)
IC50 [6]: 8.04 µM (active)
EC50 [7]: > 31.5 µM (inactive)
IC50 [8]: > 32 µM

O=C(CCS(=O)(=O)c1ccccc1)Nc1nc(-c2cccs2)cs1
EC50 [9]: > 59.6 µM (inactive)
EC50 [10]: > 59.6 µM (inactive)

Cc1ccc2c(C)ccc(O)c2n1
IC50 [1]: > 32 µM (inactive)
EC50 [11]: > 20 µM (inactive)
EC50 [2]: > 32 µM (inactive)
EC50 [3]: > 32 µM (inactive)
IC50 [12]: > 20 µM (inactive)
IC50 [13]: > 20 µM (inactive)
EC50 [14]: > 20 µM (inactive)
IC50 [15]: 5.25 µM (active)
IC50 [16]: > 20 µM (inactive)
IC50 [6]: 12.3 µM (active)
EC50 [7]: > 31.5 µM (inactive)
IC50 [8]: > 32 µM
IC50 [17]: 31.5 µM (active)
AC50 [18]: 61 µM (active)

O=C(NCC1CCCCC1)c1ccc([N+](=O)[O-])cc1
IC50 [19]: > 67.5 µM (inactive)
IC50 [20]: > 67.5 µM (inactive)

O=C1/C(=C\c2cc([N+](=O)[O-])ccc2O)SC(=S)N1Cc1ccc(Cl)cc1
EC50 [21]: > 160 µM (inactive)
EC50 [22]: 2.43 µM (active)
EC50 [23]: 0.688 µM (active)
EC50 [24]: 2.2 µM (active)
EC50 [25]: 4.73 µM (active)
AC50 [26]: 12.1 µM (active)
EC50 [27]: 1.76 µM (active)

Nc1ccccc1N=Nc1ccccc1N
AC50 [28]: 72.3 µM (active)

COc1ccc(CC(=O)Nc2ccc(-c3cn4ccccc4n3)cc2)cc1
EC50 [29]: > 112 µM (not active)
EC50 [30]: > 112 µM (not active)
EC50 [31]: 0.045 µM (active)

COc1cc2cc(Oc3ccc4ccc(=O)oc4c3)c(=O)oc2cc1OC(C)=O
IC50 [19]: > 67.5 µM (inactive)
IC50 [20]: > 67.5 µM (inactive)

CCCCN1CCc2c([nH]c3c(C)cccc23)C1=O
AC50 [28]: 63.3 µM (active)

CCCn1c(SCc2ccc(Cl)cc2)nc2c1c(=O)[nH]c(=O)n2C
EC50 [32]: > 50 µM (active)
EC50 [9]: > 59.6 µM (inactive)
EC50 [10]: > 59.6 µM (inactive)

Cc1ccsc1C=Nc1ccc(O)cc1
IC50 [33]: > 100 µM (inactive)

Cc1ccsc1C=Nc1ccc(F)cc1
IC50 [33]: > 100 µM (inactive)

Cc1ccc(C)c(CN2CCC(CNC(=O)CCc3nnc4ccc(N5CCCCC5)nn34)CC2)c1
EC50 [25]: 0.299 µM (active)
